# Literature values in article PMC10055906 (Chemical Science, 2023).
# Molecular target: FGF2 (Homo sapiens, UniProt P09038)
# Settings: read-out: KD (FGF2 affinity)
# Chain of FGF2 (P09038 134-288): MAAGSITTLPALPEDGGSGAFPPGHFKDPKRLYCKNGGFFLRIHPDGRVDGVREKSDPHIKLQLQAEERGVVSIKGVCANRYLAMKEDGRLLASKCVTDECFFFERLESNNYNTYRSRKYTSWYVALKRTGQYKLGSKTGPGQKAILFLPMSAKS
substance,measurement,value
IdoA-GlcNS(6S)-IdoA(2S)-GlcNS(6S),Kd,1.2 µM
